Measured values reported in US9303261B2, “Composition for controlling chromogenesis including microRNA” (Amorepacific Corporation, priority 2011, dated 2016).

Test system: tyrosinase mRNA
Assay: Tyrosinase mRNA expression by real-time PCR after transfection of WM115 cells with miR-125b inhibitor
Type: cell-based, human
Settings: melanoma cell line WM115, 75 uM transfected using liposome, about 60 hours, compared to Comparative Examples 1 and 2
Procedure: The present inventors used an inhibitor of […] to perform a loss-of-function study of miR-125b, in which the inhibitor of miR-125b is an oligonucleotide having a sequence complementary to that of miR-125b and can bind to miR-125b in cells to inhibit the function of the miR-125b.
75 uM of an inhibitor of miR-125b (model: IH-300595-05-0005, miRIDIAN Hairpin Inhibitor, Human hsa-miR-125b MIMAT0000423/MI0000446 (hsa-miR-125b), Dharmacon, Inc.; Example 2) was transfected into the melanoma cell line WM115 using liposome and allowed to move into the cells. […] After transfection, the cells were cultured in a 5% CO2 incubator at 37° C. for about 60 hours, and then RNA was isolated from the cells using 1 ml of Trizol reagent. Specifically, the cells were lysed using Trizol, and then centrifuged to remove the supernatant, and 0.35 ml of isopropanol was added to the residue to form nucleic acid pellets, which were then washed with 70% EtOH and dissolved in water to isolate RNA. About 1 ug of the RNA was made into cDNA using oligo dT and reverse transcriptase, and the cDNA was subjected to real-time PCR according to the TaqMan method (Applied Biosystems) using a primer (assay ID: Hs01099965_m1) specific to tyrosinase mRNA under the following conditions: reaction at 95° C. for 10 min; and then about 45 cycles of 10 sec at 95° C. and 1 min at 60° C. […]

Example 2: miRIDIAN Hairpin Inhibitor, Human hsa-miR-125b (IH-300595-05-0005, Dharmacon); oligonucleotide with sequence complementary to miR-125b
expression level of tyrosinase mRNA (normalized to GAPDH): significantly increased
